Test results published in US6943016B1, “Human adult astrocytes, their preparation and uses thereof” (Aventis Pharma S.A., priority 1999, dated 2005).

System: human adult astrocytes
Assay: TH activity in transduced human adult astrocytes (enzymatic assay of Reinhard et al.)
Type: cell-based
Settings: AdPGKtet hTH-1-infected astrocytes, doxycycline 10 ng/ml
Protocol: The medium was renewed every second day.
Three, 7 and 14 days after infection, cells were harvested and processed to measure TH activity and evaluate L-Dopa production. TH activity of cell pellets was assayed as previously described (Reinhard et al. 1986). The production of L-Dopa was assessed after growing human astrocytes for 24 h in DMEM/F12 without FCS. Conditioned media was collected, and 0.5 ml aliquots were mixed with an alumina suspension (40 mg/ml) in 0.05 M Tris-HCl, pH 8.6. Each mixture was then continuously stirred for 10 min, washed with the Tris-HCl buffer, and the alumina finally collected by centrifugation (800 g, 5 min. 4° C.). Catechols adsorbed onto the alumina gel were eluted with 0.6 N perchloric acid (0.1 ml per sample), and the eluate was neutralized with 2 M potassium phosphate pH 7.4 (20 μl per sample). After centrifugation (30 000 g, 15 min, 4° C.), 10 μl aliquots of the cleared supernatant were injected into a high performance liquid chromatography column (Ultrasphere IP, 25 cm, 0.46 cm outer diameter, 5 μm) for the electrochemical quantification of L-Dopa, as described in detail elsewhere (Adrien et al., 1989).

Structure (SMILES): C[C@H]1c2cccc(O)c2C(=O)C2=C(O)[C@]3(O)C(=O)C(C(N)=O)=C(O)[C@@H](N(C)C)[C@@H]3[C@@H](O)[C@@H]21 [doxycycline]
- decrease of TH activity in the presence of doxycycline (14 days post-infection): at least 10 fold
- TH activity in doxycycline-treated cells (day 14): 3,590 pmol/mg prot/h
